Reference: ChEMBL document CHEMBL1122357, “Alkylation of opioid receptor subtypes by alpha-chlornaltrexamine produces concurrent irreversible agonistic and irreversible antagonistic activities” (J Med Chem, 1983)

Assays:
Type in all cases: functional
Cavia porcellus [1] = species on record: Cavia porcellus; test: Agonistic effect on untreated guinea pig ileum preparations (GPI)
Cavia porcellus [2] = species on record: Cavia porcellus; test: Agonistic effect on beta-FNA treated guinea pig ileum preparations (GPI)
[3] = kappa antagonistic effect on beta-FNA treated GPI (IC50 ratio=IC50 after treatment/IC50 before treatment)
[4] = kappa antagonistic effect on beta-FNA and alpha-CNA treated GPI (IC50 ratio=IC50 after treatment/IC50 before treatment)

Oc1ccc2c3c1O[C@H]1[C@@H](N(CCCl)CCCl)CCC4(O)C(C2)N(CC2CC2)CCC314 (stereo partly specified)
IC50 (Cavia porcellus [1]): 5.5 nM
IC50 (Cavia porcellus [2]): 2.4 nM

CCOc1ccc2c(c1)C1(C)CCN(CC3CC3)C(C2=O)C1C (stereo unspecified) [ETHYLKETAZOCINE]
IC50 (Cavia porcellus [1]; Cavia porcellus, Ileum): 0.72 nM
Ratio [3]: 1.21
IC50 (Cavia porcellus [2]; Cavia porcellus, Ileum): 0.69 nM
Ratio [4]: 10.1
